Test results from US8557853B2, “Aryl fluoroethyl ureas acting as alpha 2 adrenergic agents” (Allergan, Inc., priority 2007, dated 2013).
pEC50: −log10 of the molar value.

What was measured:
Format in all cases: cell-based
alpha2C receptor = target: T1, alpha2C receptor (Homo sapiens, UniProt P18825); assay: RSAT (Receptor Selection and Amplification Technology) assay, alpha 2C; conditions: for Alpha 2C IA: intrinsic activity: ratio of maximal effect of drug to maximal effect of standard full agonist brimonidine (UK14304)
T1 construct: expressed in transfected cells; host or cells: NIH-3T3 cells
T1 sequence (P18825 1-462): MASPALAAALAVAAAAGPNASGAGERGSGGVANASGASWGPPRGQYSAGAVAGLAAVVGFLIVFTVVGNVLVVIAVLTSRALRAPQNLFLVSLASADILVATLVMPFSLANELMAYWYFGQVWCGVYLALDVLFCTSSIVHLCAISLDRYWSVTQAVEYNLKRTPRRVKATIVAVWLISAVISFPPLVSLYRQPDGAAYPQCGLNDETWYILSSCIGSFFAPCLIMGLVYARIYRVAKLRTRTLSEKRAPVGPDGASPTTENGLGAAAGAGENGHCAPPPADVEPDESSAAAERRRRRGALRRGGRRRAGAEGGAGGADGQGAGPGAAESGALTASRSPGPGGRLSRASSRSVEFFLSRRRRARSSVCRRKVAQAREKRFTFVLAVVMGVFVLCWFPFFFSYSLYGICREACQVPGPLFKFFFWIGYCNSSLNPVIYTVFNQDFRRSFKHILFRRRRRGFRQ
Excerpt: (§1) The aryl fluoroethyl ureas of the invention are agonists of alpha2 adrenergic receptors. […] Al, 1995, Pharmacol. Toxicol. 76, pp. 308-311 (incorporated herein by reference) and is also described below. Another reference pertinent to this assay is Conklin et al. (1993) Nature 363:274-6, Receptor Selection and Amplification Technology (RSAT) assay, also incorporated herein by reference.
(§2) The RSAT assay measures a receptor-mediated loss of contact inhibition that results in selective proliferation of receptor-containing cells in a mixed population of confluent cells. The increase in cell number is assessed with an appropriate transfected marker gene such as ∃-galactosidase, the activity of which can be easily measured in a 96-well format. Receptors that activate the G protein, Gq, elicit this response. Alpha 2 receptors, which normally couple to Gi, activate the RSAT response when coexpressed with a hybrid Gq protein that has a Gi receptor recognition domain, called Gq/i5.
(§3) NIH-3T3 cells are plated at a density of 2×10^6 cells in 15 cm dishes and maintained in Dulbecco's modified Eagle's medium supplemented with 10% calf serum. One day later, cells are cotransfected by calcium phosphate precipitation with mammalian expression plasmids encoding p-SV-β-galactosidase (5-10 μg), receptor (1-2 μg) and G protein (1-2 μg). 40 μg salmon sperm DNA may also be included in the transfection mixture. Fresh media is added on the following day and 1-2 days later, cells are harvested and frozen in 50 assay aliquots. Cells are thawed and 100 μl added to 100 μl aliquots of various concentrations of drugs in triplicate in 96-well dishes. Incubations continue 72-96 hr at 37° C. After washing with phosphate-buffered saline, ∃-galactosidase enzyme activity is determined by adding 200 μl of the chromogenic substrate (consisting of 3.5 mM o-nitrophenyl-β-D-galactopyranoside and 0.5% nonidet P-40 in phosphate buffered saline), incubating overnight at 30° C. and measuring optical density at 420 nm. The absorbance is a measure of enzyme activity, which depends on cell number and reflects a receptor-mediated cell proliferation. The efficacy or intrinsic activity is calculated as a ratio of the maximal effect of the drug to the maximal effect of a standard full agonist for each receptor subtype. Brimonidine, also called UK14304, the chemical structure of which is shown below, is used as the standard agonist for the alpha2A, alpha2B and alpha2C receptors.
(§4) The results of the RSAT assay with several exemplary compounds of the invention are disclosed in Table 1 below together with the chemical structures of these compounds. “Not active” means the compounds are not active at concentrations less than 10 micromolar.

alpha2A receptor = target: T2, alpha2A receptor (Homo sapiens, UniProt P08913); assay: RSAT (Receptor Selection and Amplification Technology) assay, alpha 2A; conditions: for pEC50 / Alpha 2A EC50: RSAT, transfected NIH-3T3 cells, "not active" = not active at concentrations less than 10 micromolar; for Alpha 2A IA: intrinsic activity: ratio of maximal effect of drug to maximal effect of standard full agonist brimonidine (UK14304)
T2 construct: expressed in transfected cells; host or cells: NIH-3T3 cells
T2 sequence (P08913 1-465): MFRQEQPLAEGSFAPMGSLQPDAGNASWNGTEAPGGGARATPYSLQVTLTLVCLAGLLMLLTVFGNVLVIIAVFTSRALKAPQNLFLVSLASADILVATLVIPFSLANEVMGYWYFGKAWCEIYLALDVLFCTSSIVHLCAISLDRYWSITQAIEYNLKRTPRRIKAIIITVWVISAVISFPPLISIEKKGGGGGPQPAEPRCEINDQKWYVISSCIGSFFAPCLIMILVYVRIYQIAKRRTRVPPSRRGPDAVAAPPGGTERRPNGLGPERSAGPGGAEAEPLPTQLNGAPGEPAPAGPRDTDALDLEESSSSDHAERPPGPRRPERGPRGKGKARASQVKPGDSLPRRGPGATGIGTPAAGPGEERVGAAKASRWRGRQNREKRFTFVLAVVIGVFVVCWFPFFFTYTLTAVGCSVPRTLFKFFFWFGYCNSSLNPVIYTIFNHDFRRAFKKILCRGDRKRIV
Excerpt: as §1, §2, §3, §4

alpha2B receptor = target: T3, alpha2B receptor (Homo sapiens, UniProt P18089); assay: RSAT (Receptor Selection and Amplification Technology) assay, alpha 2B; conditions: for pEC50: RSAT, transfected NIH-3T3 cells, "not active" = not active at concentrations less than 10 micromolar, read-out: Alpha 2B EC50; for Alpha 2B IA: intrinsic activity: ratio of maximal effect of drug to maximal effect of standard full agonist brimonidine (UK14304)
T3 construct: expressed in transfected cells; host or cells: NIH-3T3 cells
T3 sequence (P18089 1-450): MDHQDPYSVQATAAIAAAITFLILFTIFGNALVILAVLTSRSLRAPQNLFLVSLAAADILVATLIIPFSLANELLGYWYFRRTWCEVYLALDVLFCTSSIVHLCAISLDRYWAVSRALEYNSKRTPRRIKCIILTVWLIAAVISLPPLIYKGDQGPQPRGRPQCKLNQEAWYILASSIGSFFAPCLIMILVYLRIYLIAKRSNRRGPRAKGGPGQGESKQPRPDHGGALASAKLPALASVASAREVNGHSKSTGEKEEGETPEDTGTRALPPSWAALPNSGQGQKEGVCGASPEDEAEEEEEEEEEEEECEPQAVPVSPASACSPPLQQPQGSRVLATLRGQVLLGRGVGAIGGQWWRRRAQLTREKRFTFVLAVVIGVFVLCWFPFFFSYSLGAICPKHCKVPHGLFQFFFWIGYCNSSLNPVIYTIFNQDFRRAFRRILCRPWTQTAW
Protocol: as §2, §3

[1] = RSAT, transfected NIH-3T3 cells, "not active" = not active at concentrations less than 10 micromolar

| SMILES | pEC50 (alpha2C receptor; [1]) | Alpha 2C IA (alpha2C receptor) | pEC50 (alpha2A receptor) | Alpha 2A IA (alpha2A receptor) | pEC50 (alpha2B receptor) | Alpha 2B IA (alpha2B receptor) | Alpha 2A EC50 (alpha2A receptor) | Alpha 2C EC50 (alpha2C receptor; [1]) |
| --- | --- | --- | --- | --- | --- | --- | --- | --- |
| Cc1cccc(NC(=O)NCCF)c1C [Compound 27, 1-(2,3-dimethyl-phenyl)-3-(2-fluoro-ethyl)-urea] | 6.13 | 0.73 | < 5.70 | 0.54 | 6.40 | 0.9 |  |  |
| Cc1cccc(CNC(=O)NCCF)c1Cl [Compound 14, 1-(2-chloro-3-methyl-benzyl)-3-(2-fluoro-ethyl)-urea] | 7.00 | 0.66 | 6.44 | 0.34 | 8.07 | 0.85 |  |  |
| Cc1ccccc1CNC(=O)NCCF [Compound 2, 1-(2-fluoro-ethyl)-3-(2-methyl-benzyl)-urea] | 5.89 | 0.78 |  |  | 6.82 | 1.13 | not active |  |
| O=C(NCCF)NCc1ccccc1F [Compound 3, 1-(2-fluoro-benzyl)-3-(2-fluoro-ethyl)-urea] | 6.44 | 0.63 |  |  | 6.83 | 1.1 | not active |  |
| O=C(NCCF)NCc1cccc(Cl)c1Cl [Compound 10, 1-(2,3-dichloro-benzyl)-3-(2-fluoro-ethyl)-urea] | 6.35 | 0.86 |  |  | 7.06 | 0.91 | not active |  |
| O=C(NCCF)NCc1ccccc1I [Compound 12, 1-(2-fluoro-ethyl)-3-(2-iodo-benzyl)-urea] | 6.31 | 0.78 |  |  | 6.56 | 0.89 | not active |  |
| O=C(NCCF)NCc1ccc(O)cc1 [Compound 41, 1-(2-fluoro-ethyl)-3-(4-hydroxy-benzyl)-urea] | 6.10 | 0.69 |  |  | 6.53 | 0.84 | not active |  |
| COc1c(Cl)cccc1CNC(=O)NCCF [Compound 16, 1-(3-chloro-2-methoxy-benzyl)-3-(2-fluoro-ethyl)-urea] | 6.14 | 0.72 | 5.99 | 0.66 | 7.03 | 1.32 |  |  |
| Cc1cc(CNC(=O)NCCF)nn1C [Compound 44, 1-(1,5-dimethyl-1H-pyrazol-3-ylmethyl)-3-(2-fluoro-ethyl)-urea] | 5.38 | 0.31 |  |  | 5.64 | 0.67 | not active |  |
| O=C(NCCF)NCc1cccc(Br)c1 [Compound 7, 1-(3-bromo-benzyl)-3-(2-fluoro-ethyl)-urea] | 6.25 | 0.81 | < 5.70 | 0.46 | 6.45 | 0.84 |  |  |
| O=C(NCCF)Nc1ccccc1Br [Compound 26, 1-(2-bromo-phenyl)-3-(2-fluoro-ethyl)-urea] |  |  |  |  | 5.58 | 0.33 | not active | not active |
